We go through four compounds from US20210317099A1, “SAFER, POTENT, AND FAST ACTING ANTIMICROBIAL AGENTS” (Purdue Research Foundation, priority 2020, published 2021).

Data set [1] concerns Enterococcus faecalis ATCC 51299 (VRE). The data set can be described thus: MIC, Gram-positive panel. The data set is classed as cell-based. To be noted: Enterococcus faecalis ATCC 51299 (VRE); read-out: MIC. As to the method: (§1) Next, the spectrum of antibacterial activity of compounds 144, 148, 149, 151, 155, 158, and 187 was examined against a panel of clinically relevant Gram-positive bacterial pathogens including methicillin-resistant Staphylococcus aureus (MRSA), vancomycin-resistant Staphylococcus aureus (VRSA), vancomycin-resistant Enterococcus faecalis and Enterococcus faecium (VRE), and Streptococcus pneumoniae. Bacterial strains were grown aerobically overnight on tryptone soya agar plates at 37° C. Afterwards, a bacterial solution equivalent to 0.5 McFarland standard was prepared and diluted in cation-adjusted Mueller-Hinton broth (CAMHB) (for staphylococci). Enterococci and Streptococci were diluted in tryptone soya broth (TSB) to achieve a bacterial concentration of about 5×10^5 CFU/mL and seeded in 96-well plates. Compounds and control drugs were added in the first row of 96-well plates and serially diluted with media containing bacteria. Plates were then, incubated aerobically at 37° C. for 18-20 hours (except for S. pneumoniae, which was incubated at 37° C. in presence of 5% CO2 for 18-20 hours).

Data set [2] has as its system MRSA NRS 119. As to the kind of experiment: MIC, Gram-positive panel. To be noted: Staphylococcus aureus; MRSA NRS 119; read-out: MIC. The data set is classed as cell-based. As to the method:
as §1

In data set [3] the test system is MRSA NRS 386. The data set can be described thus: MIC, Gram-positive panel. To be noted: Staphylococcus aureus; MRSA NRS 386; read-out: MIC. The data set is classed as cell-based. As for the experimental part:
as §1

Data set [4] relates to Methicillin-resistant S. epidermidis NRS101. The data set can be described thus: MIC, Gram-positive panel. The data set is classed as cell-based. To be noted: Staphylococcus epidermidis; Methicillin-resistant S. epidermidis NRS101; read-out: MIC. As to the method: as §1
Data set [5] has as its system S. aureus ATCC 6538. As to the kind of experiment: MIC, Gram-positive panel. To be noted: Staphylococcus aureus, ATCC6538; S. aureus ATCC 6538; read-out: MIC. The format is cell-based. As to the method: as §1
Data set [6] has as its system VRSA 10. The data set can be described thus: MIC, Gram-positive panel. To be noted: Staphylococcus aureus; VRSA 10; read-out: MIC. The format is cell-based. As to the method:
as §1

In data set [7] the test system is VRSA 12. As to the kind of experiment: MIC, Gram-positive panel. The data set is classed as cell-based. To be noted: Staphylococcus aureus; VRSA 12; read-out: MIC. As to the method: as §1
The subject of data set [8] is MRSA USA 400. As to the kind of experiment: Time-kill assay. The data set is classed as cell-based, Staphylococcus aureus. To be noted: 5×MIC; for time required for complete eradication of the bacterial count: MRSA USA 400, 24-hour incubation. As for the experimental part: In order to the mode of killing of methylene lactone compounds, a time kill assay was performed against MRSA USA 400 as described previously. MRSA USA400 cells in logarithmic growth phase (OD600˜1.00) were diluted to 6.03×10^6 colony-forming units (CFU/mL) and exposed to concentrations equivalent to 5×MIC (in triplicate) of 148, 149, 151, 155, 158 and vancomycin in Tryptic soy broth. Aliquots (100 μL) were collected from each treatment after 0, 2, 4, 6, 8, 12, and 24 hours of incubation at 37° C. and subsequently serially diluted in PBS. Bacteria were then transferred to Tryptic soy agar plates and incubated at 37° C. for 18-20 hours before viable CFU/mL was determined (FIG. 1).
DMSO (solvent for the compounds) served as a negative control and vancomycin served as a control drug. The error bars represent standard deviation values obtained from triplicate samples used for each compound/antibiotic studied.

Data set [9] in a line: In vitro cytotoxicity, MTS assay. The format is cell-based, human. To be noted: human, Caco-2 cells; Caco-2, two hours incubation, MTS; read-out: 50% cytotoxic concentration (CC50). As for the experimental part: Compounds 144, 148, 151, 155, 158, and 187 were assayed (at concentrations of 16, 32, and 64 μg/mL) against a human colorectal adenocarcinoma (Caco-2) cell to determine the potential toxic effect to mammalian cells in vitro. Briefly, cells were cultured in Dulbecco's Modified Eagle Medium (DMEM) supplemented with 10% fetal bovine serum (FBS), non-essential amino acids (1×), penicillin-streptomycin at 37° C. in presence of 5% CO2. Control cells received DMSO alone at a concentration equal to that in drug-treated wells. The cells were incubated with the compounds (in triplicate) in a 96-well plate at 37° C. with 5% CO2 for two hours. This was followed by the subsequent addition of the assay reagent MTS 3-(4,5-dimethylthiazol-2-yl)-5-(3-carboxymethoxyphenyl)-2-(4-sulfophenyl)-2H-tetrazolium) (Promega, Madison, Wis., USA) and the plate was incubated for three to four hours. Absorbance readings (at OD490) were recorded using a kinetic microplate reader (Molecular Devices, Sunnyvale, Calif., USA). The quantity of viable cells after treatment with each compound was expressed as a percentage of the viability of DMSO-treated control cells (average of triplicate wells±standard deviation).
FIG. 3. Analyzing the toxicity of 144, 148, 151, 155, 158, and 187 compounds (tested in triplicates at 16, 32 and 64 μg/mL) against human colorectal cells (Caco-2) using the MTS 3-(4,5-dimethylthiazol-2-yl)-5-(3-carboxymethoxyphenyl)-2-(4-sulfophenyl)-2H-tetrazolium) assay. Results are presented as percent viable cells relative to DMSO (negative control) to determine a baseline measurement for the cytotoxic impact of each compound. The absorbance values represent an average of three samples analyzed for each compound. Error bars represent standard deviation values. The data were analyzed via a two-way ANOVA with post-hoc Dunnett's test for multiple comparisons. An asterisk (*) denotes statistical significance (P<0.05) between results for compounds and DMSO.
On the technique in general: Formazan colour is commonly taken as a measure of viable cells.

For data set [10], the system named is total proteases production in MRSA USA300. As to the kind of experiment: Inhibition of staphylococcal total proteases production, skimmed milk method. The data set is classed as cell-based, Staphylococcus aureus. To be noted: MRSA USA300, 0.25×MIC, untreated = 100%. As for the experimental part:
The modified skimmed milk method was utilized to investigate the protease inhibitory activities of BHS compounds as described previously. In brief, overnight culture of MRSA300 in TSB, with and without subinhibitory concentrations of compounds (in triplicate), was centrifuged at 14000×g for 10 minutes. Then, a total volume of 500 μL of culture supernatant was incubated with 1 mL skimmed milk (1.25%) at 37° C. for 1 hour. Afterwards, the OD600 was measured to indicate the degree of clearance of skimmed milk. Higher OD values indicate lower proteolytic activity and greater protease inhibitory activity.
FIG. 4. Influence of BHS compounds on the staphylococcal total protease production. OD600 was measured following overnight culturing of MRSA USA300 in TSB in presence and absence of 0.25×MIC of 148, 149, 155, 158 and vancomycin followed by incubation of supernatants with skim milk for 1 hour at 37° C. The Data are presented as percent production (means±standard deviation). DMSO (the solvent for the compounds that served as a negative control). Vancomycin served as the control antibiotic. The values represent an average (means±standard deviation) of four samples analyzed for each compound/antibiotic. Error bars represent standard deviation values. An asterisk (*) denotes statistical significance (P<0.05) between results for compounds 148, 149, 155, 158 and vancomycin analyzed via unpaired t test ([…]).

SMILES strings stand for the structures. Converted amounts (≈) assume the structure as drawn. A value given as a limit tells only on which side of the number the result lay.

Consider `C=C(C(=O)OC)C(c1ccc2ccccc2c1)C(O)c1cccc2ccccc12` (stereo not shown) [Compound 148], for which the minimal inhibitory concentration (MIC) – broadly, the lowest concentration that inhibits growth of the organism – in [1] was greater than 64 µg/mL; in data set [2], 1 µg/mL (≈ 2.61 µM); in data set [3] it was 1 µg/mL (≈ 2.61 µM); in data set [4] it was 1 µg/mL (≈ 2.61 µM); in data set [5], 1 µg/mL (≈ 2.61 µM); in [6], 2 µg/mL (≈ 5.23 µM). In data set [7], the MIC is 2 µg/mL (≈ 5.23 µM). Also, the “time required for complete eradication of the bacterial count” value (from here on “time required for complete eradication”) in [8] came out at 12 h. Besides, the “reduction in the bacterial count after 6 hours” value in data set [8] (MRSA USA 400, after 6 hours) worked out at 3 log10. In data set [8] (MRSA USA 400, after 6 hours), the “reduction in the bacterial count after 6 hours (percent)” value was determined as 99.9%. Also, the CC50 at 2 h in data set [9] was greater than 64 µg/mL. The total protease production in data set [10] came to 87%.
For the compound `C=C1C(=O)O[C@H](c2ccccc2)[C@@H]1c1cccc2ccccc12` [Compound 151], the minimum inhibitory concentration (MIC) in data set [1] was greater than 64 µg/mL; in data set [2], 2 µg/mL (≈ 6.66 µM); in data set [3], 1 µg/mL (≈ 3.33 µM); in [4] it was 8 µg/mL (≈ 26.6 µM); in data set [5], 2 µg/mL (≈ 6.66 µM); in data set [6], 2 µg/mL (≈ 6.66 µM). In addition, the minimal inhibitory concentration (MIC) in data set [7] worked out at 2 µg/mL (≈ 6.66 µM). Moreover, the “time required for complete eradication” value in data set [8] was 2 h. Also, the CC50 at 2 h in data set [9] was greater than 64 µg/mL.
In the case of `C=C1C(=O)O[C@H](c2cccc3ccccc23)[C@@H]1c1ccc2ccccc2c1` [Compound 155], the MIC was greater than 64 µg/mL in data set [1]; 1 µg/mL (≈ 2.85 µM) in data set [2]; 1 µg/mL (≈ 2.85 µM) in [3]; 1 µg/mL (≈ 2.85 µM) in [4]; 1 µg/mL (≈ 2.85 µM) in [5]; 1 µg/mL (≈ 2.85 µM) in data set [6]. The MIC in data set [7] came to 2 µg/mL (≈ 5.71 µM). Besides, the “time required for complete eradication” value in data set [8] came to 2 h. Besides, the total protease production in data set [10] came to 65%.
In the case of `C=C1C(=O)O[C@H](c2ccc3ccccc3c2)[C@@H]1c1ccc2ccccc2c1` [Compound 158], the MIC in [1] was greater than 64 µg/mL; in data set [2], 1 µg/mL (≈ 2.85 µM); in data set [3] it was 1 µg/mL (≈ 2.85 µM); in [4], 0.5 µg/mL (≈ 1.43 µM); in data set [5], 1 µg/mL (≈ 2.85 µM); in data set [6], 1 µg/mL (≈ 2.85 µM). Also, the MIC in data set [7] turned out to be 2 µg/mL (≈ 5.71 µM). Also, the “time required for complete eradication” value in data set [8] is 2 h. Further, in [9], the CC50 at 2 h was greater than 64 µg/mL. The total protease production in data set [10] stood at 56%.
